This is an account of results in patent US20250034216A1, “STEREOSELECTIVE COVALENT LIGANDS FOR ONCOGENIC AND IMMUNOLOGICAL PROTEINS” (The Scripps Research Institute, priority 2021, published 2025).

Common to all, as to assay: IA-DTB cysteine engagement
What all share (format): binding

The target in one experiment is T1, FXYD3_C63 (Homo sapiens, UniProt Q14802).
T1 construct: endogenous in cells; host or cells: 22Rv1
T1 sequence (Q14802 21-87): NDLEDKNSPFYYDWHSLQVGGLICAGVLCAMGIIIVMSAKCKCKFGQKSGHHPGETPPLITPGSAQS
As to conditions: 22Rv1 cells, 20 μM probe, 1 h, relative to DMSO. The gist of the method: (§1)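 Read-out is TMT-based cysteine engagement, expressed as each reporter ion intensity divided by the average of the DMSO channels. Before that, probe-treated cell lysates were capped with IA-DTB, digested, enriched on streptavidin and TMT-tagged. PSMs with DMSO summed intensity <10,000 or DMSO CV >0.5 were excluded.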

In a further experiment the target is T2, PSME1_C22 (Homo sapiens, UniProt Q06323).
T2 construct: endogenous in cells; host or cells: 22Rv1
As to conditions: 22Rv1 cells, relative to DMSO; for % engagement PSME1_C22: 20 μM probe, 1 h; for % engagement PSME1_22: 5 μM probe, 1 h (FIG. 5B). The gist of the method:
as §1

The target of another experiment is T3, UBR5_C2094 (Homo sapiens, UniProt O95071).
T3 construct: endogenous in cells; host or cells: 22Rv1
The note with it: 22Rv1 cells, 20 μM probe, 1 h, relative to DMSO. The procedure, abridged: as §1

The target of the next experiment is T4, ITPR2_C292 (Homo sapiens, UniProt Q14571).
T4 construct: endogenous in cells; host or cells: 22Rv1
The note with it: 22Rv1 cells, 20 μM probe, 1 h, relative to DMSO. The procedure, abridged:
as §1

Another experiment addresses T5, NSUN3_C298 (Homo sapiens, UniProt Q9H649).
T5 construct: endogenous in cells; host or cells: 22Rv1
T5 sequence (Q9H649 1-340): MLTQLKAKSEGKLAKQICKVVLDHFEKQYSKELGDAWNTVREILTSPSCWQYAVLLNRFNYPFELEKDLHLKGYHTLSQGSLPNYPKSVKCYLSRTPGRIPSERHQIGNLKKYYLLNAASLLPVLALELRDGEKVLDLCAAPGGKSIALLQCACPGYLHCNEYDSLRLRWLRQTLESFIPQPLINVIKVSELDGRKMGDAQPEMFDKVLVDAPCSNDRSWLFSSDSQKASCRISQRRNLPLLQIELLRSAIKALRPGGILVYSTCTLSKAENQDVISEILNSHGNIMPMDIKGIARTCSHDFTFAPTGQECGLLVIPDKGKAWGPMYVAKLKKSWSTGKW
The note with it: 22Rv1 cells, 20 μM probe, 1 h, relative to DMSO. The gist of the method: as §1

A further experiment has as its target T6, YES1_C287 (Homo sapiens, UniProt P07947).
T6 construct: endogenous in cells; host or cells: 22Rv1
As to conditions: 22Rv1 cells, relative to DMSO; for % engagement YES1_C287: 20 μM probe, 1 h; for % engagement YES1_287: 5 μM probe, 1 h (FIG. 5B). The procedure, abridged:
as §1

The next experiment has as its target T7, TBC1D13_C282 (Homo sapiens, UniProt Q9NVG8).
T7 construct: endogenous in cells; host or cells: 22Rv1
T7 sequence (Q9NVG8 1-400): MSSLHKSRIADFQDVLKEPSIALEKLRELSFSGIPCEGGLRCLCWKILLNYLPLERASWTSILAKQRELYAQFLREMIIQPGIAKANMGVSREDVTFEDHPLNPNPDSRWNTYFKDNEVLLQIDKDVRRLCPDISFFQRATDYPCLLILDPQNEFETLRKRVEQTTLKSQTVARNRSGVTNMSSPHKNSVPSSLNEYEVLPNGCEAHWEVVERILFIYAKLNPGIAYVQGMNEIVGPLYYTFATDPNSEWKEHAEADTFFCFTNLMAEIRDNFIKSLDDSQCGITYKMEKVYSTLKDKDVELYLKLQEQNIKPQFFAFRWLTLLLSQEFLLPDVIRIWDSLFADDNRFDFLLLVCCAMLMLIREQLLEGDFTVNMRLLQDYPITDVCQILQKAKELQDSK
As to conditions: 22Rv1 cells, 20 μM probe, 1 h, relative to DMSO. The gist of the method:
as §1

Another experiment deals with T8, CCNE2_C109 (Homo sapiens, UniProt O96020).
T8 construct: endogenous in cells; host or cells: 22Rv1
The note with it: 22Rv1 cells, 20 μM probe, 1 h, relative to DMSO. The gist of the method:
as §1

The target in another experiment is T9, PRRT3_C720 (Homo sapiens, UniProt Q5FWE3).
T9 construct: endogenous in cells; host or cells: 22Rv1
The note with it: 22Rv1 cells, 20 μM probe, 1 h, relative to DMSO. The procedure, abridged: as §1

T3 sequence (O95071 whole entry): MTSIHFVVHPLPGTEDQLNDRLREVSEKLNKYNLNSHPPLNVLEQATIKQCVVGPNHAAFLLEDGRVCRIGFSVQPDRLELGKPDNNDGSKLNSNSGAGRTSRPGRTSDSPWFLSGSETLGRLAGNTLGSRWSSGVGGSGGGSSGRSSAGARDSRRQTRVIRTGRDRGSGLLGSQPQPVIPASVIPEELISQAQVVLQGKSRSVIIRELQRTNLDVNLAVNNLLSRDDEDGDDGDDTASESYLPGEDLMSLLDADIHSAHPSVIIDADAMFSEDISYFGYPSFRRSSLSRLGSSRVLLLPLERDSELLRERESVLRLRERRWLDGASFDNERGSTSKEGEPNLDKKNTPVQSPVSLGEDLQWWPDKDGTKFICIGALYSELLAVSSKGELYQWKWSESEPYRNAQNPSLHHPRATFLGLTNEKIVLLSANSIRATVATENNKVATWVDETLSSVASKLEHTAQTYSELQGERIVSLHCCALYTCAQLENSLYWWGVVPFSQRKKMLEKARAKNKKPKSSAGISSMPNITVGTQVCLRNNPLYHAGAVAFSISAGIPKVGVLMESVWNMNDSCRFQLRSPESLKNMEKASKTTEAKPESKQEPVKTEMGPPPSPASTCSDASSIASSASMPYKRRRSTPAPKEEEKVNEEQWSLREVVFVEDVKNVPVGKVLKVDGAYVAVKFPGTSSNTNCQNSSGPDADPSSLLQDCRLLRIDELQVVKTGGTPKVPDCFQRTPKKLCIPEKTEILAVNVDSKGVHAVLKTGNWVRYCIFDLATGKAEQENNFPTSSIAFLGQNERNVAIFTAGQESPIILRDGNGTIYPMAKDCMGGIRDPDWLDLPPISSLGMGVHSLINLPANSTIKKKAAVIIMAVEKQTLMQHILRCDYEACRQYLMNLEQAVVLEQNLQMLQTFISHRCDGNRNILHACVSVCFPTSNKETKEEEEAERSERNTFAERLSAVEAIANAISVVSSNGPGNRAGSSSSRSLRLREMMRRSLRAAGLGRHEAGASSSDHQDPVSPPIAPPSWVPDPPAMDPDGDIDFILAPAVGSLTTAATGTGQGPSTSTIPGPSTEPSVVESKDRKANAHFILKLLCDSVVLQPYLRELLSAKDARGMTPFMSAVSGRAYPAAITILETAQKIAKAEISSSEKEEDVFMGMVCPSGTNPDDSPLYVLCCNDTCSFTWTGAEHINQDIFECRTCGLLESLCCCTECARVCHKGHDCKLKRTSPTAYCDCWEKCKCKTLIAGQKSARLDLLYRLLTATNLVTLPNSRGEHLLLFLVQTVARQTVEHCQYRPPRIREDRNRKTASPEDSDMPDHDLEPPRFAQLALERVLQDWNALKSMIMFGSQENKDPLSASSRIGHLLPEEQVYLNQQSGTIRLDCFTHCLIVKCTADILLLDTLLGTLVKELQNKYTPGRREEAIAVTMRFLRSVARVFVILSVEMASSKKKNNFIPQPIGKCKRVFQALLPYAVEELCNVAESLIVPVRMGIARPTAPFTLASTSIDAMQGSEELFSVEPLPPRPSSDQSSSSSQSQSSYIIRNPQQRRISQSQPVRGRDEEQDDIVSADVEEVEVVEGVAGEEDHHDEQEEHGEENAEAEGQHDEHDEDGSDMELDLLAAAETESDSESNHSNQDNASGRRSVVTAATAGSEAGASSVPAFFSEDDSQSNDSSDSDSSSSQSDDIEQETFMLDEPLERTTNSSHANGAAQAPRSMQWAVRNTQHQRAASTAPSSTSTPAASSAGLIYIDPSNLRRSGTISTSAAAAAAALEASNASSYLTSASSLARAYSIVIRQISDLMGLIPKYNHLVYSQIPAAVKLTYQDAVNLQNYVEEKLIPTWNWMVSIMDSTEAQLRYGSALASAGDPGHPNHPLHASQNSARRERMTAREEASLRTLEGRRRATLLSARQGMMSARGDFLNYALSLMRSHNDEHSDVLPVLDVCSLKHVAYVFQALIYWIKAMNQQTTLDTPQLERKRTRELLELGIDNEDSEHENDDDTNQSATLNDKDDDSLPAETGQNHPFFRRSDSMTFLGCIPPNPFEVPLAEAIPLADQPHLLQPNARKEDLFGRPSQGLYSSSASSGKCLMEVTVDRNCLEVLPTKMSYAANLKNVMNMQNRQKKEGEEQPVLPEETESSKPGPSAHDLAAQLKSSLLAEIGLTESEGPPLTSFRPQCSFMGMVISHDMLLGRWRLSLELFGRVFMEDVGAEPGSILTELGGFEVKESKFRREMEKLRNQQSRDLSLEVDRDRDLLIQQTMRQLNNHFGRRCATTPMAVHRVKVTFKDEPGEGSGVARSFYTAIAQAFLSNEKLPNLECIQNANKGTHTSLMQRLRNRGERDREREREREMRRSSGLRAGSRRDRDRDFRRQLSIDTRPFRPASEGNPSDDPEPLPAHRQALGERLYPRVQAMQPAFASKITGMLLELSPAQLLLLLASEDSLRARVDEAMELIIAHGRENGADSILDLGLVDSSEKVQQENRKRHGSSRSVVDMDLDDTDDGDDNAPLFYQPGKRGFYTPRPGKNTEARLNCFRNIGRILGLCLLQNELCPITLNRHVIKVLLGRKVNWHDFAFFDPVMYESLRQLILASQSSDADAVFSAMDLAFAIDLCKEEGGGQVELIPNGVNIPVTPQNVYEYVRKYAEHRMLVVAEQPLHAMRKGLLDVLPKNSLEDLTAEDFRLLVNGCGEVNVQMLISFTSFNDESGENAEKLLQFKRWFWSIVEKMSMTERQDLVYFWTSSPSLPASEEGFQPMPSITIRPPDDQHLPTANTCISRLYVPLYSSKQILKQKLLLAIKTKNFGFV
T8 sequence (O96020 whole entry): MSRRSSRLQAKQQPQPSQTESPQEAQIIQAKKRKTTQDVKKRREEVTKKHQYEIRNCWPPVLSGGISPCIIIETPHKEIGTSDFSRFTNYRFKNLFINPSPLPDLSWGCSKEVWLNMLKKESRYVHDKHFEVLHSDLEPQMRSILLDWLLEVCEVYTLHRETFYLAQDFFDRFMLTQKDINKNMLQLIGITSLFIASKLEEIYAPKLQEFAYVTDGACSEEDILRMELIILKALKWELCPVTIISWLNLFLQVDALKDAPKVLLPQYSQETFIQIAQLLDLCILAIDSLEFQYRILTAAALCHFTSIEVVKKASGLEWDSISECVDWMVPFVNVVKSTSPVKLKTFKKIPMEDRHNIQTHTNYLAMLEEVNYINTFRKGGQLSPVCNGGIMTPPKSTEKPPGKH
T2 sequence (Q06323 whole entry): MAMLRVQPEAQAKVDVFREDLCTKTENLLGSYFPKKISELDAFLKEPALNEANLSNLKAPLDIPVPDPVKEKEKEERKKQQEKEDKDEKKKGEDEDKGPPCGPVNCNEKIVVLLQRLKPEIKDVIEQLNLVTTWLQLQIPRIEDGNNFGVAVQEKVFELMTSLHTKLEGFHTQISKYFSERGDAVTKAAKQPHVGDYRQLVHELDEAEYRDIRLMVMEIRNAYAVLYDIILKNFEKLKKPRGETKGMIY
T9 sequence (Q5FWE3 28-981): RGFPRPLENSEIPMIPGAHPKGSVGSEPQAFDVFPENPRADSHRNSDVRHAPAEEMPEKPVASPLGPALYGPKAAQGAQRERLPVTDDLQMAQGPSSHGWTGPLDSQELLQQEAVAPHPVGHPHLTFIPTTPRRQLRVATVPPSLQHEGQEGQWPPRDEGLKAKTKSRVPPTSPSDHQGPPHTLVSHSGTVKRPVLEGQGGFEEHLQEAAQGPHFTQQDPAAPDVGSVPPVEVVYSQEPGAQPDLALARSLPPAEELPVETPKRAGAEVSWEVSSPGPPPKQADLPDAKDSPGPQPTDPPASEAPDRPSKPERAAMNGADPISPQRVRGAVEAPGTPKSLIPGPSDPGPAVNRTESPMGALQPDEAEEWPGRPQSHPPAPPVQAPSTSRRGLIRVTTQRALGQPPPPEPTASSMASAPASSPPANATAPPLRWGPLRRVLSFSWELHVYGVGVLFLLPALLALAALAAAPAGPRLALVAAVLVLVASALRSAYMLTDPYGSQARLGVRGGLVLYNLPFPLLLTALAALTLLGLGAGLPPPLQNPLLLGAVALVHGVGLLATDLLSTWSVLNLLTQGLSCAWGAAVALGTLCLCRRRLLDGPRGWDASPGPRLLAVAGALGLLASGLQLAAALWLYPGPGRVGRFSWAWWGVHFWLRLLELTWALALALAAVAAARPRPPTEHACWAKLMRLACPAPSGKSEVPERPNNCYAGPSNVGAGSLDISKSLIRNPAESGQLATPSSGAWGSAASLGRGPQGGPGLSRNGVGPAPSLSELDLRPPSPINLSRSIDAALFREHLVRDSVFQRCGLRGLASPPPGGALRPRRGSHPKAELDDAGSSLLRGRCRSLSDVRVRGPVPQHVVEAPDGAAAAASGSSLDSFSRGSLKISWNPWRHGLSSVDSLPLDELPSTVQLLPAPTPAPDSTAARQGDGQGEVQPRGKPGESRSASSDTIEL
T6 sequence (P07947 whole entry): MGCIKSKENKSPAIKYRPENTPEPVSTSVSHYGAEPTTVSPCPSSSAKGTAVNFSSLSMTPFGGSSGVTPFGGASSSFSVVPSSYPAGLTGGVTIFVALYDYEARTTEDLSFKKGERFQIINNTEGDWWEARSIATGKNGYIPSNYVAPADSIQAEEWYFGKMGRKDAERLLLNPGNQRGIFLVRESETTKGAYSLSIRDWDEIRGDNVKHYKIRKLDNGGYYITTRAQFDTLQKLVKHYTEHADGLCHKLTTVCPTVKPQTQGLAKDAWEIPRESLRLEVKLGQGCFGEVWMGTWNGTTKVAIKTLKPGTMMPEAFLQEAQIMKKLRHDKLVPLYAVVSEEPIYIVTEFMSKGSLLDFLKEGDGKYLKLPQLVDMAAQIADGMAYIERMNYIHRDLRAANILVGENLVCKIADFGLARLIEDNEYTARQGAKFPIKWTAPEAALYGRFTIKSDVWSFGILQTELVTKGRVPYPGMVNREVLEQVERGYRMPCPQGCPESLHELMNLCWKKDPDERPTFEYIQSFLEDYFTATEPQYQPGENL

On to `C=CC(=O)N1C[C@@H](c2ccc(Br)cc2)[C@H]1C(=O)Nc1cccc2cccnc12` [MY-1A, (2S,3R)-1-acryloyl-3-(4-bromophenyl)-N-(quinolin-8-yl)azetidine-2-carboxamide], for which the “% engagement FXYD3_C63” value at FXYD3_C63 amounted to 48.5%. Also, the “% engagement PSME1_C22” value at PSME1_C22 is recorded as −2.25%. Moreover, the “% engagement UBR5_C2094” value at UBR5_C2094 is recorded as 23%. The “% engagement ITPR2_C292” value at ITPR2_C292 is reported as 24.5%. Also, the “% engagement NSUN3_C298” value at NSUN3_C298 is recorded as 35.5%. Besides, the “% engagement YES1_C287” value at YES1_C287 amounted to 5.75%. In addition, the “% engagement TBC1D13_C282” value at TBC1D13_C282 is on record as 75.75%. For the same compound, the “% engagement CCNE2_C109” value on CCNE2_C109 amounted to 77%. Further, at PRRT3_C720, the “% engagement PRRT3_C720” value came out at 47%.
For the compound `C=CC(=O)N1C[C@H](c2ccc(Br)cc2)[C@@H]1C(=O)Nc1cccc2cccnc12` [MY-1B, (2R,3S)-1-acryloyl-3-(4-bromophenyl)-N-(quinolin-8-yl)azetidine-2-carboxamide], the “% engagement FXYD3_C63” value at FXYD3_C63 is 52.5%. Moreover, on PSME1_C22, the “% engagement PSME1_22” value came to 44.38% and the “% engagement PSME1_C22” value was determined as 67.75%. The “% engagement UBR5_C2094” value on UBR5_C2094 was found to be 40.5%. Moreover, on ITPR2_C292, the “% engagement ITPR2_C292” value amounted to 70%. Moreover, the “% engagement NSUN3_C298” value at NSUN3_C298 is 55.5%. For the same compound, at YES1_C287, the “% engagement YES1_287” value is on record as 67.13% and the “% engagement YES1_C287” value is 94.5%. Also, at TBC1D13_C282, the “% engagement TBC1D13_C282” value was found to be 1%. The “% engagement CCNE2_C109” value on CCNE2_C109 was found to be 76.75%. The “% engagement PRRT3_C720” value on PRRT3_C720 is given as 53%.
`C=CC(=O)N1C[C@H](c2ccc(Br)cc2)[C@H]1C(=O)Nc1cccc2cccnc12` [MY-3A, (2S,3S)-1-acryloyl-3-(4-bromophenyl)-N-(quinolin-8-yl)azetidine-2-carboxamide]: the “% engagement FXYD3_C63” value at FXYD3_C63 came out at 43.5%. Besides, the “% engagement PSME1_C22” value at PSME1_C22 is listed as −14.5%. Also, the “% engagement UBR5_C2094” value on UBR5_C2094 turned out to be 22.5%. Besides, the “% engagement ITPR2_C292” value at ITPR2_C292 turned out to be 48.5%. On NSUN3_C298, the “% engagement NSUN3_C298” value was determined as 38%. Also, the “% engagement YES1_C287” value on YES1_C287 amounted to 0.5%. Further, the “% engagement TBC1D13_C282” value on TBC1D13_C282 is listed as −16%. For the same compound, the “% engagement CCNE2_C109” value at CCNE2_C109 turned out to be 21.75%. The “% engagement PRRT3_C720” value on PRRT3_C720 stood at 45.5%.
For `C=CC(=O)N1C[C@H](c2ccc(Br)cc2)[C@H]1C(=O)Nc1cccc2cccnc12` [MY-3B, (2S,3S)-1-acryloyl-3-(4-bromophenyl)-N-(quinolin-8-yl)azetidine-2-carboxamide], the “% engagement FXYD3_C63” value on FXYD3_C63 is 71%. In addition, the “% engagement PSME1_C22” value at PSME1_C22 is −31.75%. Also, the “% engagement UBR5_C2094” value on UBR5_C2094 stood at 81%. In addition, the “% engagement ITPR2_C292” value on ITPR2_C292 was 50.5%. Besides, the “% engagement NSUN3_C298” value at NSUN3_C298 worked out at 83%. Moreover, the “% engagement YES1_C287” value on YES1_C287 stood at 42.25%. Further, the “% engagement TBC1D13_C282” value at TBC1D13_C282 is on record as 51.5%. The “% engagement CCNE2_C109” value at CCNE2_C109 came to 42.75%. The “% engagement PRRT3_C720” value on PRRT3_C720 is given as 71%.
As to `CC#CC(=O)N1C[C@H](c2ccc(Br)cc2)[C@@H]1C(=O)Nc1cccc2cccnc12` [MY-45B, (2R,3S)-3-(4-bromophenyl)-1-(but-2-ynoyl)-N-(quinolin-8-yl)azetidine-2-carboxamide], at PSME1_C22, the “% engagement PSME1_22” value amounted to 69.50%. The “% engagement YES1_287” value at YES1_C287 is 5.50%.
